According to article PMC7293270 (Scientific Reports, 2020):
Read-outs that look alike come from different tables or passages of the source.

Legend:
P-gp = test: Rho-123 transport assay (flow cytometry) for P-gp activity with RT and NF-κB inhibitor SN50; assay type: cell-based; conditions: Huh-7, 20 μM Rho-123
Protocol: In brief, Huh-7 cells were seeded in a 6-well plate. RT0Gy, RT2Gy, or RT9Gy was applied. At 1 hr or 24 hr after RT, ketoconazole (a P-gp inhibitor), digoxin (a P-gp substrate) and DMSO were added to the corresponding wells and incubated at 37 °C. The existing medium was replaced with 20 μM Rho-123 solution and incubated for 1 hr. Then, the cells were analyzed (10000 cells/sample) to measure Rho-123 accumulation with a FACSCalibur flow cytometer (excitation (Ex) = 515 nm, emission (Em) = 545 nm; Becton Dickinson, San Jose, CA, USA). The data were analyzed with CellQuest software (Becton Dickinson, San Jose, CA, USA).
The peptide SN50 inhibits nuclear translocation of NF-κB. SN50M was used as a negative control. In brief, Huh-7 cells were pretreated with 20 μM SN50 or SN50M (Enzo Life Sciences, Inc., Farmingdale, NY, USA) for 1 hr and were then irradiated. At 1 hr or 24 hr after RT, the existing medium was replaced with 20 μM Rho-123 and incubated for 1 hr. The cells were analyzed (10000 cells/sample) to measure Rho-123 accumulation with a FACSCalibur flow cytometer (Ex = 515 nm, Em = 545 nm; Becton Dickinson, San Jose, CA, USA). The data were analyzed with CellQuest software (Becton Dickinson, San Jose, CA, USA).

[1] = Biliary excretion pharmacokinetics of Rho-123 after RT in freely moving rats; assay type: in vivo, Sprague-Dawley rats; conditions: for AUC(0-t) / Cmax / MRT / Tmax / clearance / half-life: Sprague-Dawley, rat, bile, iv, 0.2 mg/kg, biliary excretion; for half-life: read-out: t½
Protocol: A freely moving rat model was designed for the current study[21] (Fig. 1A). Experimental rats were anesthetized with 1 g/mL urethane and 0.1 g/mL α-chloralose (1 mL/kg by intraperitoneal [i.p.] injection), and polyethylene tubes were then implanted in the right jugular vein for intravenous (i.v.) fluid administration. The right jugular vein was catheterized for blood sampling. The catheter traversed the subcutaneous tissue and was fixed in the dorsal neck region. After surgery, the rats were placed in an experimental cage and allowed to recover for 1 day. During the recovery period, the rats were kept warm under a light. Then, the rats were anesthetized and immobilized on a board while undergoing CT for localization of the whole liver (conventional technique, Fig. 1B) or a central area of 1.5 × 1.5 cm (SBRT technique, Fig. 1C). […] An equal volume of methanol was added to 100-μL aliquots of bile and plasma sample specimens for deproteinization. The mixture was vortexed for 15 s and centrifuged at 12000 × g for 10 min.

[2] = RT2Gy, Rho-123 10 min later (concurrent)
[3] = RT2Gy, Rho-123 24 hr later (sequential)
[4] = RT9Gy, Rho-123 10 min later (concurrent)
[5] = RT9Gy, Rho-123 24 hr later (sequential)
[6] = sham RT, Rho-123 0.2 mg/kg i.v., rats

For `COC(=O)c1ccccc1-c1c2ccc(=N)cc-2oc2cc(N)ccc12` [Rho-123, rhodamine 123], the Rho-123 intensity (P-gp; concurrent RT2Gy) was 99.2 ± 2.2, the Rho-123 intensity (P-gp; concurrent RT9Gy) was 93.6 ± 3.4 and the Rho-123 intensity (P-gp; sequential RT2Gy) was 103.8 ± 0.6. The Rho-123 intensity (P-gp; sequential RT9Gy) was 118.4 ± 0.9, the AUC(0-t) ([1]; RT2Gy, Rho-123 0.2 mg/kg i.v. 10 min later (concurrent)) was 3170 ng·h/mL and the AUC(0-t) ([1]; RT2Gy, Rho-123 0.2 mg/kg i.v. 24 hr later (sequential)) was 1920 ng·h/mL. It also gave a Cmax [1, 2] of 3560 ± 1930 ng/mL, an MRT [1, 2] of 66 min and a Tmax [1, 2] of 11 min. It also gave a clearance [1, 2] of 0.92 ± 0.23 mL/min/kg, a half-life [1, 2] of 46 ± 13 min and a Cmax [1, 3] of 2240 ± 570 ng/mL. It also gave an MRT [1, 3] of 47 min, a Tmax [1, 3] of 9 min and a clearance [1, 3] of 1.73 ± 0.61 mL/min/kg. It also gave a half-life [1, 3] of 32 ± 8 min, an AUC(0-t) ([1]; RT9Gy, Rho-123 0.2 mg/kg i.v. 10 min later (concurrent)) of 2710 ng·h/mL and an AUC(0-t) ([1]; RT9Gy, Rho-123 0.2 mg/kg i.v. 24 hr later (sequential)) of 1660 ng·h/mL. For the same molecule, the Cmax [1, 4] was 2860 ± 830 ng/mL, the MRT [1, 4] was 66 min and the Tmax [1, 4] was 11 min. For the same molecule, the clearance [1, 4] was 1.07 ± 0.33 mL/min/kg, the half-life [1, 4] was 43 ± 6 min and the Cmax [1, 5] was 2070 ± 750 ng/mL. It also gave an MRT [1, 5] of 50 min, a Tmax [1, 5] of 13 min and a clearance [1, 5] of 1.91 ± 0.56 mL/min/kg. It also gave a half-life [1, 5] of 34 ± 9 min, an AUC(0-t) [1, 6] of 1880 ng·h/mL and a Cmax [1, 6] of 2010 ± 600 ng/mL. For the same molecule, the MRT [1, 6] was 61 min, the Tmax [1, 6] was 14 min and the clearance [1, 6] was 1.56 ± 0.3 mL/min/kg. For the same molecule, the half-life [1, 6] was 42 ± 13 min, the “Increase in AUC of biliary excretion” value ([1]; concurrent RT2Gy compared to sham group) was 69.0% and the “Increase in AUC of biliary excretion” value ([1]; concurrent RT9Gy compared to sham group) was 44.2%. The “Decrease in AUC of biliary excretion” value ([1]; sequential RT2Gy compared to concurrent RT2Gy) was 39.5% and the “Decrease in AUC of biliary excretion” value ([1]; sequential RT9Gy compared to concurrent RT9Gy) was 38.6%.
